Reference: the NIST ThermoML archive (doi:10.1021/acs.jced.7b01018)
± gives the expanded uncertainty stated by the source.

Settings: Liquid, Frequency=2 MHz, Single path-length method

CCO [ethanol]
Settings | speed of sound [m/s]
323.31 K, 1410 kPa | 1070.7 ± 1.2
323.31 K, 5245 kPa | 1096.8 ± 1.2
323.31 K, 11101 kPa | 1135 ± 1.3
323.31 K, 17687 kPa | 1174.5 ± 1.3
323.31 K, 23114 kPa | 1204.2 ± 1.4
323.31 K, 30237 kPa | 1241.9 ± 1.5
323.31 K, 36831 kPa | 1274.5 ± 1.5
323.31 K, 43809 kPa | 1306 ± 1.6
323.31 K, 50864 kPa | 1337.3 ± 1.6
323.31 K, 58500 kPa | 1369.4 ± 1.7
323.31 K, 62862 kPa | 1386.2 ± 1.7
347.1 K, 1446 kPa | 991.29 ± 1.1
347.1 K, 4092 kPa | 1011.8 ± 1.1
347.1 K, 7163 kPa | 1035 ± 1.1
347.1 K, 14616 kPa | 1085.6 ± 1.2
347.1 K, 21177 kPa | 1126.4 ± 1.3
347.1 K, 28408 kPa | 1168.1 ± 1.3
347.1 K, 35022 kPa | 1203.4 ± 1.4
347.1 K, 42067 kPa | 1238.6 ± 1.4
347.1 K, 48843 kPa | 1270.3 ± 1.5
347.1 K, 54137 kPa | 1294.1 ± 1.5
347.1 K, 58348 kPa | 1312.6 ± 1.6
347.1 K, 62859 kPa | 1331.6 ± 1.6
369.38 K, 1432 kPa | 914.53 ± 1
369.38 K, 3923 kPa | 936.5 ± 1
369.38 K, 7109 kPa | 963.26 ± 1.1
369.38 K, 11382 kPa | 996.24 ± 1.1
369.38 K, 19601 kPa | 1053.8 ± 1.2
369.38 K, 27704 kPa | 1104.7 ± 1.2
369.38 K, 33060 kPa | 1135.3 ± 1.3
369.38 K, 41165 kPa | 1179.1 ± 1.4
369.38 K, 49420 kPa | 1220.3 ± 1.4
369.38 K, 54796 kPa | 1246.1 ± 1.4
369.38 K, 58367 kPa | 1261.5 ± 1.5
369.38 K, 65148 kPa | 1291.2 ± 1.5
397.28 K, 1546 kPa | 811.26 ± 0.98
397.28 K, 4302 kPa | 840.39 ± 0.97
397.28 K, 7333 kPa | 870.18 ± 0.99
397.28 K, 12482 kPa | 915.79 ± 1
397.28 K, 18105 kPa | 960.62 ± 1.1
397.28 K, 24432 kPa | 1006.2 ± 1.1
397.28 K, 29996 kPa | 1043.3 ± 1.1
397.28 K, 36074 kPa | 1080.7 ± 1.2
397.28 K, 44752 kPa | 1129.5 ± 1.3
397.28 K, 49805 kPa | 1156 ± 1.3
397.28 K, 58415 kPa | 1198.6 ± 1.4
397.28 K, 63790 kPa | 1223.5 ± 1.4
422.9 K, 1514 kPa | 701.53 ± 0.95
422.9 K, 5675 kPa | 755.36 ± 0.94
422.9 K, 9530 kPa | 798.44 ± 0.93
422.9 K, 15206 kPa | 853.77 ± 0.95
422.9 K, 23492 kPa | 923.37 ± 1
422.9 K, 31793 kPa | 984.06 ± 1.1
422.9 K, 38446 kPa | 1027.7 ± 1.1
422.9 K, 47571 kPa | 1082 ± 1.2
422.9 K, 53132 kPa | 1112.2 ± 1.2
422.9 K, 58734 kPa | 1141.2 ± 1.3
422.9 K, 63754 kPa | 1166.2 ± 1.3
